Data reported in patent US6441180B1, “Tetrazolyl-phenyl actamide glucokinase activators” (Hoffmann-La Roche Inc., priority 2000, dated 2002).

melting point	SMILES
73 to 78 °C	Cc1nnnn1-c1ccc(C(CC2CCCC2)C(=O)Nc2ccc(Br)cn2)cc1F (stereo not drawn) [Example 2, N-(5-Bromo-pyridin-2-yl)-3-cyclopentyl-2-[3-fluoro-4-(5-methyl-tetrazol-1-yl)-phenyl]-propionamide]
185 to 186 °C	CNC(=O)NC(=O)C(CC1CCCC1)c1ccc(-n2nnnc2C)c(Cl)c1 (stereo not drawn) [Example 11, 1-{2-[3-Chloro-4-(5-methyl-tetrazol-1-yl)-phenyl]-3-cyclopentyl-propionyl}-3-methyl-urea]

Continued, molecule first:

SMILES	melting point
Cc1nnnn1-c1ccc(C(CC2CCCC2)C(=O)Nc2nccs2)cc1Cl (stereo not drawn) [Example 3, 2-[3-Chloro-4-(5-methyl-tetrazol-1-yl)-phenyl]-3-cyclopentyl-N-thiazol-2-yl-propionamide]	190 to 193 °C
Cc1nnnn1-c1ccc(/C(=C\C2CCCC2)C(=O)Nc2nccs2)cc1F [Example 12, (E)-3-Cyclopentyl-2-[3-fluoro-4-(5-methyl-tetrazol-1-yl)-phenyl]-N-thiazol-2-yl-acrlamide]	158 to 162 °C
CNC(=O)NC(=O)/C(=C/C1CCCC1)c1ccc(-n2nnnc2C)c(F)c1 [Example 22, (E)-1-{3-Cyclopentyl-2-[3-fluoro-4-(5-methyl-tetrazol-1-yl)-phenyl]-acryloyl}-3-methyl-urea]	186 to 192 °C
Cc1nnnn1-c1cc(C(CC2CCCC2)C(=O)Nc2nccs2)ccc1S(C)(=O)=O (stereo not drawn) [Example 9, 3-Cyclopentyl-2-[4-methanesulfonyl-3-(5-methyl-tetrazol-1-yl)-phenyl]-N-thiazol-2-yl-propionamide]	148 to 154 °C
